The values that follow come from patent US9657263B2 (priority 2010, dated 2017).

One test deals with influenza B virus. On the set-up: species or system BALB/c mice. Conditions: mouse, in vivo.
Another test concerns influenza A virus. Set-up: species or system BALB/c mice. Conditions: mouse, in vivo.

For the compound `CCOC(=O)C1=C[C@@H](OC(CC)CC)[C@H](NC(C)=O)[C@@H](N)C1` [Tamiflu, oseltamivir phosphate], in the test with influenza B virus, the clinical symptoms result was “significant weight loss, cough, deem and messy hairs, decreased activity”; the survival rate came out at 100%. The “death rate (FIG. 4a)” value with influenza A virus turned out to be 33%.
